Assay results: ChEMBL document CHEMBL3991601, “The target landscape of clinical kinase drugs” (Science, 2017)
Active and inactive are the calls of the source.

Legend:
[1] = target: Calcium/calmodulin-dependent protein kinase type II subunit gamma (Homo sapiens, UniProt Q13555)
Ephrin type-B receptor 6 = target: T1, Ephrin type-B receptor 6 (Homo sapiens, UniProt O15197)
T1 sequence (O15197 whole entry): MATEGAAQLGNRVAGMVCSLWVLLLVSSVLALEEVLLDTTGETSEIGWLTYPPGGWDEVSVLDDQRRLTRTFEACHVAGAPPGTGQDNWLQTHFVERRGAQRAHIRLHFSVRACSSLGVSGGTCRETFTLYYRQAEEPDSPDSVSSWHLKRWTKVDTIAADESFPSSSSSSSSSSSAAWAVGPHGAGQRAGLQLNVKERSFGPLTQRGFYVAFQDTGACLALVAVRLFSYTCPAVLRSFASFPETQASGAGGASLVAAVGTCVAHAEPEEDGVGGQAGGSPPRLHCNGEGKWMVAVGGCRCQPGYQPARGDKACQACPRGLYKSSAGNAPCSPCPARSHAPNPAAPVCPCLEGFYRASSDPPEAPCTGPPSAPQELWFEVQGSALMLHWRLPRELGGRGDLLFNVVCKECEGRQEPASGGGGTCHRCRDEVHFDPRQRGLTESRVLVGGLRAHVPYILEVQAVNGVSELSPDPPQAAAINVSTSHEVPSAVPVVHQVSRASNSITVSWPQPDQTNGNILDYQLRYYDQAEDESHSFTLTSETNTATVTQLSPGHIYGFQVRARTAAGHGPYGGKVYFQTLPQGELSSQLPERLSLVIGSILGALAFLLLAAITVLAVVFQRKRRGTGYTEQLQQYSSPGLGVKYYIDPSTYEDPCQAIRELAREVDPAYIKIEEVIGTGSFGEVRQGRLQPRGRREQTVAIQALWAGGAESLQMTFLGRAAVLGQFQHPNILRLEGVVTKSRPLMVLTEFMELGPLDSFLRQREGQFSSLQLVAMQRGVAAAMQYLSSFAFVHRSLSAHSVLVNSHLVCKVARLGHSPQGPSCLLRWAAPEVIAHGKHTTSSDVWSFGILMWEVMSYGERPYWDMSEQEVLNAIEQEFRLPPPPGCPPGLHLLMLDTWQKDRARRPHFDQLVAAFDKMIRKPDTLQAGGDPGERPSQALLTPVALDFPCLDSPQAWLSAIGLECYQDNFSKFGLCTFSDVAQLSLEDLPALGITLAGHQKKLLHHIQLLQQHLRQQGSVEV

[2] = target: T2, RNA cytidine acetyltransferase (Homo sapiens, UniProt Q9H0A0)
T2 sequence (Q9H0A0 whole entry): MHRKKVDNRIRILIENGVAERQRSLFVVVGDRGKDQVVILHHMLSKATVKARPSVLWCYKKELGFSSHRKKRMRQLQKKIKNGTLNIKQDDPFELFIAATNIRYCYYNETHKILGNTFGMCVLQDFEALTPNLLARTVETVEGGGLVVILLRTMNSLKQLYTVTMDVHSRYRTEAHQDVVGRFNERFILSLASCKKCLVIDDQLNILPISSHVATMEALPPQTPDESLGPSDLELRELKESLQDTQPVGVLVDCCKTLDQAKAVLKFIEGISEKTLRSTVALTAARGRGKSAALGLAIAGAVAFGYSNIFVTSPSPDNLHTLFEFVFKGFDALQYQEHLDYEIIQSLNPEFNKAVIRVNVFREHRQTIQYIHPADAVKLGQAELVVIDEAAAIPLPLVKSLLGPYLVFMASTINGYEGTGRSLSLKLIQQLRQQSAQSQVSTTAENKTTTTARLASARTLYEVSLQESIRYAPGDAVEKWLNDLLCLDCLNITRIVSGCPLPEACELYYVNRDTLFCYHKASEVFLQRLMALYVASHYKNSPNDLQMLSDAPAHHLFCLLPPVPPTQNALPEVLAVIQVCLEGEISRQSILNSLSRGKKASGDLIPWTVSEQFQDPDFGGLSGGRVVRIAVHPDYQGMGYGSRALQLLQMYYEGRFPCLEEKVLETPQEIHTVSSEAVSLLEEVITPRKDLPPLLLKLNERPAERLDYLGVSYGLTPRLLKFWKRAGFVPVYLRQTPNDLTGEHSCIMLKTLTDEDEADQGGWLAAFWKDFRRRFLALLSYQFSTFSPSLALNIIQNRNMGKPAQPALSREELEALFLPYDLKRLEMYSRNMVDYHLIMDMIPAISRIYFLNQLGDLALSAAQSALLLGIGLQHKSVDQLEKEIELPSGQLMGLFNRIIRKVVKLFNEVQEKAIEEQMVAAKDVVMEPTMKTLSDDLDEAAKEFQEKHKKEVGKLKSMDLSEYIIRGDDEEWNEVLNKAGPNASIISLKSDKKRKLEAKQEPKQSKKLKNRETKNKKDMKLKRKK

[3] = target: Structural maintenance of chromosomes protein 2 (Homo sapiens, UniProt O95347)
Sequence of Structural maintenance of chromosomes protein 2 (O95347 whole entry): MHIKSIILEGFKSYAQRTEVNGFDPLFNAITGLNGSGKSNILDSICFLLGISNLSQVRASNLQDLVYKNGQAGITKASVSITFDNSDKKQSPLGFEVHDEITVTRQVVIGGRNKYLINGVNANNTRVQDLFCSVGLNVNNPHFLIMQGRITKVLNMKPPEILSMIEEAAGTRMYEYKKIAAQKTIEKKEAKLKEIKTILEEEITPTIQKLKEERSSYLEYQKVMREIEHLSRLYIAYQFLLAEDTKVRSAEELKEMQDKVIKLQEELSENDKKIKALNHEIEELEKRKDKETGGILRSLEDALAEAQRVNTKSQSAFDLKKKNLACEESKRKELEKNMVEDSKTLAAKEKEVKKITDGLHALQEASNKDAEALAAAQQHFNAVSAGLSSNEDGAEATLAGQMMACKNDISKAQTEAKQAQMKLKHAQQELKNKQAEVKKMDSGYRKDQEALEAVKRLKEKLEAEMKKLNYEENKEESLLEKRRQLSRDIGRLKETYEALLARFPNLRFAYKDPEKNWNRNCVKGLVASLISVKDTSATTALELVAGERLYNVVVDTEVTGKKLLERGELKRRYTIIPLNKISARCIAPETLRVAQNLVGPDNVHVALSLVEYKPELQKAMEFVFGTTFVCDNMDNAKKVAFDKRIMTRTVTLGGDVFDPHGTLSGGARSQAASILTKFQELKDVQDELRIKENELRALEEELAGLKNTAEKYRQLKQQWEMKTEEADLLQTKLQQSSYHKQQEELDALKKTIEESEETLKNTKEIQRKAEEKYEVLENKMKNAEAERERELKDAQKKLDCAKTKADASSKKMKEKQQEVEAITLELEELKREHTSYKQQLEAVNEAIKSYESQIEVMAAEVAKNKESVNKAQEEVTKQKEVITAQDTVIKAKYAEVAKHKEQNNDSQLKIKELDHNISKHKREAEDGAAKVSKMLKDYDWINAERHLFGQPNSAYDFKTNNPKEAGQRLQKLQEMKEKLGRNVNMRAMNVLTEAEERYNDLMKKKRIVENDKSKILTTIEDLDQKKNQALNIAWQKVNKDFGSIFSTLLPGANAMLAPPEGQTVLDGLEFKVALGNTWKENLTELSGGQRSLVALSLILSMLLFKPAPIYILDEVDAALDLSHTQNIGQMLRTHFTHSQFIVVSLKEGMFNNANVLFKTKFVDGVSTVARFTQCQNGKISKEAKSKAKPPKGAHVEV

[4] = target: Serine/threonine-protein kinase MRCK beta (Homo sapiens, UniProt Q9Y5S2)
Sequence of Serine/threonine-protein kinase MRCK beta (Q9Y5S2 whole entry): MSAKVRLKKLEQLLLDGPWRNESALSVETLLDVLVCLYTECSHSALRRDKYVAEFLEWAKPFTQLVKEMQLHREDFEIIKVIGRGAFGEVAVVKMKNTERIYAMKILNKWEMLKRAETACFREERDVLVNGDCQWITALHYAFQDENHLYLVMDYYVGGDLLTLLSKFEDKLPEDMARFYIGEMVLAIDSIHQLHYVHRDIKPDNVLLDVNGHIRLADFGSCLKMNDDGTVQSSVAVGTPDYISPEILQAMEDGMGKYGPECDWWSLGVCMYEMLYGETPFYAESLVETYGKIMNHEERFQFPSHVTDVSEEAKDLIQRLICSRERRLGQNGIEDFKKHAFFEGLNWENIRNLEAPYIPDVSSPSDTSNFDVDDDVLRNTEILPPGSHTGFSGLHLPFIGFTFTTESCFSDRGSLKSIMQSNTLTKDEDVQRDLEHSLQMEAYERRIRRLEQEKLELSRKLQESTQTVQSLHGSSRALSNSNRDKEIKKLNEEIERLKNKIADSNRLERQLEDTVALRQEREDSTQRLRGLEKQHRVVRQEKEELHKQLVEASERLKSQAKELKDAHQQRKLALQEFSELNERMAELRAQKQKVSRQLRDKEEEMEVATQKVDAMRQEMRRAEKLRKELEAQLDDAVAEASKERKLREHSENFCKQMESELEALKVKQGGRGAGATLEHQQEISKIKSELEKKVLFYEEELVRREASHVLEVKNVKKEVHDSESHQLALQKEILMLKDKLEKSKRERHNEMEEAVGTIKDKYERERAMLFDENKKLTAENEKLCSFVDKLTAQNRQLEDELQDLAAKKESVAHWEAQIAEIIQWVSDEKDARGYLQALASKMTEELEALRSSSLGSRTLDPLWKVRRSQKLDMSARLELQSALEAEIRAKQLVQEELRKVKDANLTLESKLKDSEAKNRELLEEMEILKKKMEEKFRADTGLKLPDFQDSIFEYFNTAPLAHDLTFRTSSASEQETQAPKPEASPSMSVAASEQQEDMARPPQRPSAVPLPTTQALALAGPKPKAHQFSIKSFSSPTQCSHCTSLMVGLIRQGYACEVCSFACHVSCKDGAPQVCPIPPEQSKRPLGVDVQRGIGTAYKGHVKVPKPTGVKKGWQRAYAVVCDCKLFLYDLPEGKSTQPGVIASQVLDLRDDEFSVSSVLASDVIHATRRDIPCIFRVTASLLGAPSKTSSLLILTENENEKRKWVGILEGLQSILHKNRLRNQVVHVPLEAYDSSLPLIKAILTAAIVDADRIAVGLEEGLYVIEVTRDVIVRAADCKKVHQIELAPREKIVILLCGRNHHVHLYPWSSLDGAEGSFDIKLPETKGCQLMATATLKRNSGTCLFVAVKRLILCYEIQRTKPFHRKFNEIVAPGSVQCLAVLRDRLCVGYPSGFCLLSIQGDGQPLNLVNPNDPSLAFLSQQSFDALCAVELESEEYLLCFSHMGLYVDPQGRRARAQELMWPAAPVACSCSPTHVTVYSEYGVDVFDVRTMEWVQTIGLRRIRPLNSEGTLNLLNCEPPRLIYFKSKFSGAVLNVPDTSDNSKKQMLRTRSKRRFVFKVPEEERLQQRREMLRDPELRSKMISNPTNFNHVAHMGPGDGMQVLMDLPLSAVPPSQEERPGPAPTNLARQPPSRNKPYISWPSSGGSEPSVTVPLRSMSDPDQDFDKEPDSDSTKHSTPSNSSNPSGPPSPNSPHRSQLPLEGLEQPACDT

[5] = target: Serine/threonine-protein kinase PAK 4 (Homo sapiens, UniProt O96013)
Sequence of Serine/threonine-protein kinase PAK 4 (O96013 whole entry): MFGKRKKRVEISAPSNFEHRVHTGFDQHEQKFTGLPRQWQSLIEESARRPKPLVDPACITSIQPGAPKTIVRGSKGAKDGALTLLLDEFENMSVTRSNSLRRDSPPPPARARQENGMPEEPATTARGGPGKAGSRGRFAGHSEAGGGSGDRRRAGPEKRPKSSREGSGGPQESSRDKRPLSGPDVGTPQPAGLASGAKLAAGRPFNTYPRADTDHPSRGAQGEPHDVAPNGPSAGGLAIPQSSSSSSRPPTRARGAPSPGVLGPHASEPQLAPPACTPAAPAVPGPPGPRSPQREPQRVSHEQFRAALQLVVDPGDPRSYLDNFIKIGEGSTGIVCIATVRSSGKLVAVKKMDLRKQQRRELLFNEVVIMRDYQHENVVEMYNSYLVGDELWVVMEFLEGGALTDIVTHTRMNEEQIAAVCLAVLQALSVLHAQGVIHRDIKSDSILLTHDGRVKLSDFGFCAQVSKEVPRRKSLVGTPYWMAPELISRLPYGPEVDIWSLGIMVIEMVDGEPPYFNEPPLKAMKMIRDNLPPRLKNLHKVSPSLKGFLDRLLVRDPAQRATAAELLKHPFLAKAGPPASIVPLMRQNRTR
Also: in the data inactive means no Kd found up to 30 µM.

Sequence of Calcium/calmodulin-dependent protein kinase type II subunit gamma (Q13555 whole entry): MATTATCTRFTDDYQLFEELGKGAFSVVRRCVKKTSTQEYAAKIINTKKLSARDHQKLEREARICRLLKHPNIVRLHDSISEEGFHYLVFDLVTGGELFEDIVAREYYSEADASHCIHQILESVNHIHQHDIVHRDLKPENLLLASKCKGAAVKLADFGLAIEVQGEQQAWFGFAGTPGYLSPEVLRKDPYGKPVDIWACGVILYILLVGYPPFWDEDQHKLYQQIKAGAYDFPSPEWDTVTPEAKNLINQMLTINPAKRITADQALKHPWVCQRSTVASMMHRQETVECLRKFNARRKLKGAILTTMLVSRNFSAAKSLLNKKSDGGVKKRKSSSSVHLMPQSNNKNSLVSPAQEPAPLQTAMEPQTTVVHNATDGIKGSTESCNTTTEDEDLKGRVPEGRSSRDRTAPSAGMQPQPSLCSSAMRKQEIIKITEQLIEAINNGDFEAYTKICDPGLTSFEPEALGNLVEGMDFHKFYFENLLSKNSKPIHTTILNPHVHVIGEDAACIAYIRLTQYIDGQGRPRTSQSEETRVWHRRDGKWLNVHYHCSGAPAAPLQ

Compound | Kd [1] | Kd (Ephrin type-B receptor 6) | Kd [2] | Kd [3] | Kd [4] | Kd [5]
Cn1cc(-c2cnc3ccc4ccc(CS(=O)(=O)NCc5ccccn5)cc4c(=O)c3c2)cn1 [MK-8033] | > 30 µM (inactive) | > 30 µM (inactive) | > 30 µM (inactive) | > 30 µM (inactive) | > 30 µM (inactive) | > 30 µM (inactive)
Cn1cc(C2=C(c3cn(C4CCN(Cc5ccccn5)CC4)c4ccccc34)C(=O)NC2=O)c2ccccc21 [ENZASTAURIN] | – | – | > 30 µM (inactive) | > 30 µM (inactive) | – | –
CN(C[C@@H]1COCCO1)S(=O)(=O)Nc1ccc2ccc3ncc(-c4cnn(C)c4)cc3c(=O)c2c1 [MK-2461] | > 30 µM (inactive) | > 30 µM (inactive) | > 30 µM (inactive) | > 30 µM (inactive) | > 30 µM (inactive) | > 30 µM (inactive)
CN1C/C=C/CCOc2cccc(c2)-c2ccnc(n2)Nc2cccc(c2)C1 [ZOTIRACICLIB] | > 30 µM (inactive) | > 30 µM (inactive) | > 30 µM (inactive) | > 30 µM (inactive) | 46.9 µM | > 30 µM (inactive)
CC(=O)c1cnc2ccc(-c3cc(Cl)c(O)c(Cl)c3)nc2c1N[C@H]1CC[C@H](CN(C)C)CC1 | > 30 µM (inactive) | 0.521 µM (active) | > 30 µM (inactive) | > 30 µM (inactive) | > 30 µM (inactive) | 0.515 µM (active)
Cc1cc(Nc2ncc(Cl)c(Nc3ccccc3S(=O)(=O)C(C)C)n2)c(OC(C)C)cc1C1CCNCC1 [CERITINIB] | > 30 µM (inactive) | > 30 µM (inactive) | > 30 µM (inactive) | > 30 µM (inactive) | > 30 µM (inactive) | > 30 µM (inactive)
CC(C)(C)c1nc(-c2cccc(NS(=O)(=O)c3c(F)cccc3F)c2F)c(-c2ccnc(N)n2)s1 [DABRAFENIB] | > 30 µM (inactive) | 0.412 µM (active) | > 30 µM (inactive) | > 30 µM (inactive) | > 30 µM (inactive) | > 30 µM (inactive)
Cc1nc2cc(-n3ncc(C(=O)c4cc5ccccc5[nH]4)c3N)ccc2[nH]1 [FGFR INHIBITOR DEBIO 1347] | > 30 µM (inactive) | 0.007 µM | > 30 µM (inactive) | > 30 µM (inactive) | > 30 µM (inactive) | > 30 µM (inactive)
CCn1cc(-c2ccnc3[nH]c(-c4cccc(CN(C)C)c4)cc23)c(-c2ccc(NC(=O)N(C)C)cc2)n1 [GSK-1070916] | > 30 µM (inactive) | 3.77 µM (active) | > 30 µM (inactive) | > 30 µM (inactive) | > 30 µM (inactive) | > 30 µM (inactive)
C[C@@H](N)c1ccc(C(=O)Nc2ccnc3[nH]ccc23)cc1 [Y-39983] | > 30 µM (inactive) | > 30 µM (inactive) | > 30 µM (inactive) | > 30 µM (inactive) | 0.034 µM (active) | > 30 µM (inactive)
N#CC1(c2ccc(NC(=O)c3cccnc3NCc3ccncc3)cc2)CCCC1 [RIVOCERANIB] | > 30 µM (inactive) | > 30 µM (inactive) | > 30 µM (inactive) | > 30 µM (inactive) | > 30 µM (inactive) | > 30 µM (inactive)
CCNC(=O)C#Cc1ccc2c(c1)NC(=O)/C2=C(\Nc1ccc(CN(C)C)cc1)c1ccccc1 | > 30 µM (inactive) | > 30 µM (inactive) | > 30 µM (inactive) | > 30 µM (inactive) | > 30 µM (inactive) | > 30 µM (inactive)
CC(C)c1cc(CNc2nc(Nc3cc(C4CC4)[nH]n3)cc(N3CCN(C)CC3)n2)on1 [XL-228] | > 30 µM (inactive) | 0.026 µM (active) | > 30 µM (inactive) | > 30 µM (inactive) | > 30 µM (inactive) | 50.4 µM
CO[C@H]1C[C@@H]2CC[C@@H](C)[C@@](O)(O2)C(=O)C(=O)N2CCCC[C@H]2C(=O)O[C@H]([C@H](C)C[C@@H]2CC[C@@H](O)[C@H](OC)C2)CC(=O)[C@H](C)/C=C(\C)[C@@H](O)[C@@H](OC)C(=O)[C@H](C)C[C@H](C)/C=C/C=C/C=C/1C [SIROLIMUS] | > 30 µM (inactive) | > 30 µM (inactive) | > 30 µM (inactive) | > 30 µM (inactive) | > 30 µM (inactive) | > 30 µM (inactive)
COc1cc(Nc2ncc3c(n2)-c2ccc(Cl)cc2C(c2c(F)cccc2OC)=NC3)ccc1C(=O)O [ALISERTIB] | – | > 30 µM (inactive) | > 30 µM (inactive) | > 30 µM (inactive) | > 30 µM (inactive) | –
O=C(Nc1cc(C(F)(F)F)cc(C(F)(F)F)c1)c1cc(Cl)ccc1O [IMD-0354] | > 30 µM (inactive) | > 30 µM (inactive) | > 30 µM (inactive) | > 30 µM (inactive) | > 30 µM (inactive) | > 30 µM (inactive)
N#CC[C@H](C1CCCC1)n1cc(-c2ncnc3[nH]ccc23)cn1 [RUXOLITINIB] | 0.259 µM (active) | – | > 30 µM (inactive) | > 30 µM (inactive) | – | –
CC(=O)NCC(=O)N1[C@@H]2CC[C@H]1c1ccc(Nc3ncc(C(F)(F)F)c(NC4CCC4)n3)cc12 [PF-03814735] | – | > 30 µM (inactive) | > 30 µM (inactive) | > 30 µM (inactive) | > 30 µM (inactive) | –
Cc1nc(Nc2n[nH]c3c2CN(C(=O)N[C@H](CN(C)C)c2ccccc2)C3(C)C)c2sccc2n1 [PF-03758309] | 0.275 µM (active) | > 30 µM (inactive) | > 30 µM (inactive) | > 30 µM (inactive) | > 30 µM (inactive) | –
Cc1[nH]c(/C=C2\C(=O)Nc3ccccc32)c(C)c1CCC(=O)O [ORANTINIB] | – | – | 1.24 µM | > 30 µM (inactive) | > 30 µM (inactive) | –
CNC(=O)c1ccccc1Sc1ccc2c(/C=C/c3ccccn3)n[nH]c2c1 [AXITINIB] | – | – | > 30 µM (inactive) | > 30 µM (inactive) | – | –
C[C@@H](Oc1cc(-n2cnc3ccc(CN4CCN(C)CC4)cc32)sc1C(N)=O)c1ccccc1C(F)(F)F [GSK-461364] | – | – | > 30 µM (inactive) | > 30 µM (inactive) | – | –
NC(=O)Nc1cc(-c2cccc(F)c2)sc1C(=O)N[C@H]1CCCNC1 [AZD-7762] | > 30 µM (inactive) | – | > 30 µM (inactive) | > 30 µM (inactive) | > 30 µM (inactive) | 0.166 µM (active)
O=C(NOCCO)c1cc(CN2OCCCC2=O)c(F)c(F)c1Nc1ccc(I)cc1F [RO-4987655] | – | – | > 30 µM (inactive) | > 30 µM (inactive) | – | –
NC(=O)c1c(OCc2c(F)cc(Br)cc2F)nsc1NC(=O)NCCCCN1CCCC1 [OSI-632] | – | 0.226 µM (active) | > 30 µM (inactive) | > 30 µM (inactive) | > 30 µM (inactive) | –
O=C(Nc1c[nH]nc1-c1nc2cc(CN3CCOCC3)ccc2[nH]1)NC1CC1 [AT-9283] | > 30 µM (inactive) | 0.012 µM (active) | > 30 µM (inactive) | > 30 µM (inactive) | > 30 µM (inactive) | –
